Test results published in the NIST ThermoML archive (doi:10.1016/j.fluid.2008.07.003).
± gives the expanded uncertainty stated by the source.

Settings: Liquid

FCC(F)(F)F [1,1,1,2-tetrafluoroethane]
Settings	vapor or sublimation pressure [kPa]
283.15 K	416 ± 2.6
293.15 K	572.4 ± 3.6
303.15 K	771.5 ± 4.8
313.15 K	1017.5 ± 6.4
323.15 K	1318.8 ± 8.2
333.15 K	1681.6 ± 10
343.15 K	2114.5 ± 13
353.15 K	2629 ± 16
